Among the data in paper PMC6882899 (Scientific Reports, 2019) are EC50 values, retold here.

The assay has as its target zebrafish WT α1BB-AR (Danio rerio, UniProt Q5U3D9). The experiment in a line: cell-based.

Chain of zebrafish WT α1BB-AR (Q5U3D9 1-481): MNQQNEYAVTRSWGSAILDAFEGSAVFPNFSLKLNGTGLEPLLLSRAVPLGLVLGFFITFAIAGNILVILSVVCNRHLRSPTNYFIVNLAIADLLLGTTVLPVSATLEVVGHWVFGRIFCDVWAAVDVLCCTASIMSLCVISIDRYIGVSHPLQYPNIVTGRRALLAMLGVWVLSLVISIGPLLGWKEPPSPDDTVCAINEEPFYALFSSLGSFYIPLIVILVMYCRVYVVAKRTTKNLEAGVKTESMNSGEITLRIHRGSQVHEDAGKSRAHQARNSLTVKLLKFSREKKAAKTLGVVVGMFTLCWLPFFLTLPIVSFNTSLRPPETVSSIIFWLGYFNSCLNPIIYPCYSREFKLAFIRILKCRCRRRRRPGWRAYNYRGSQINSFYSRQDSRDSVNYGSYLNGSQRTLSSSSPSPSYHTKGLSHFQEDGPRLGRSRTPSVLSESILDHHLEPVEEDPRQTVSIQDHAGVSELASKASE

Broadly, the EC50 is the concentration at which the effect is half-maximal. A lower EC50 goes with a more potent agent. With `NC[C@H](O)c1ccc(O)c(O)c1` [NE, norepinephrine], the midpoint of the response, the EC50, lay at 407 ± 45 nM.
